Reference: US20150315188A1, “COMPOUNDS AND METHODS FOR TREATMENT OF HYPERTENSION” (MEDIVATION TECHNOLOGIES, INC., priority 2012, published 2015)

Columns and labels:
Set-up in all cases: purchased Milipore (Millipore)
[1] = molecular target: T1, Human adrenergic α2B receptor (Homo sapiens, UniProt P18089); assay: Radioligand binding, adrenergic α2B (Protocol Group B); settings: Protocol Group B; for Percentage inhibition of ligand binding, Adrenergic α2B (10 nM): 10 nM compound, 0.01 µM; for Percentage inhibition of ligand binding, Adrenergic α2B (30 nM): 30 nM compound, 0.03 µM; for Percentage inhibition of ligand binding, Adrenergic α2B (0.1 μM): 0.1 μM compound
T1 sequence (P18089 1-450): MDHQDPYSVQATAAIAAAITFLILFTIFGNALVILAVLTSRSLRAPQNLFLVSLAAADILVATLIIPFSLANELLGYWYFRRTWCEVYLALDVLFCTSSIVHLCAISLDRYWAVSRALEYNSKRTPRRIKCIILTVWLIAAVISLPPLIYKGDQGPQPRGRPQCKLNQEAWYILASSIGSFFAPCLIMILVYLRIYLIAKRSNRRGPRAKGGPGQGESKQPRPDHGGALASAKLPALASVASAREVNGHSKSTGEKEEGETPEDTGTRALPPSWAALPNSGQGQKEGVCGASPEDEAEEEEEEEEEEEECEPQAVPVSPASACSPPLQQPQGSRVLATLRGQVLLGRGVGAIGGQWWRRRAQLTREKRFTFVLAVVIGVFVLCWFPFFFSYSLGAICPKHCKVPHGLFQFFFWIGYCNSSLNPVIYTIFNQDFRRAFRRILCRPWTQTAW
Method in brief: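 Recombinant human α2B receptor membranes incubated with compounds in 50 mM Tris-HCl pH 7.4, 5 mM MgCl2, 1 mM CaCl2, 0.2% BSA, 1% DMSO vehicle. Non-specific binding defined with 10 μM rauwolscine. Values are percent inhibition of specific binding or estimated Ki.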

[2] = molecular target: T2, Human adrenergic α2A receptor (Homo sapiens, UniProt P08913); assay: Radioligand binding, adrenergic α2A (Protocol Group B); settings: Protocol Group B; for Percentage inhibition of ligand binding, Adrenergic α2A (0.1 μM): 0.1 μM compound; for Percentage inhibition of ligand binding, Adrenergic α2A (0.3 μM): 0.3 μM compound
T2 sequence (P08913 1-465): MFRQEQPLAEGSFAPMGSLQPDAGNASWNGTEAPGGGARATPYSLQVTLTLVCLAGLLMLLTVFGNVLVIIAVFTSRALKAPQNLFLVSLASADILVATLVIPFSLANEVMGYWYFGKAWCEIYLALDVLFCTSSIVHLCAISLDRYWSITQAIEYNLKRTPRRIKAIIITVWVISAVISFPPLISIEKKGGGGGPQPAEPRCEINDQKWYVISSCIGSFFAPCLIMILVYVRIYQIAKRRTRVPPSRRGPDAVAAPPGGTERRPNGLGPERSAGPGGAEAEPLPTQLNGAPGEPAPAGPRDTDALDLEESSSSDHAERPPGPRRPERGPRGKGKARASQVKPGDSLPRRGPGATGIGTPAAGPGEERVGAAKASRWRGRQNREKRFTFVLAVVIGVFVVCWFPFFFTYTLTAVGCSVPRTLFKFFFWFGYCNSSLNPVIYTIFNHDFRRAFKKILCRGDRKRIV
Method in brief: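 Membranes from recombinant cells expressing the receptor, in 50 mM Tris-HCl pH 7.4 with 5 mM MgCl2, 1 mM CaCl2, 0.2% BSA; compounds incubated with 2 nM [^3H]MK-912 for 60 min at 25° C. Nonspecific binding defined by 10 μM rauwolscine; filtration, counting; percent inhibition of specific binding, or estimated Ki.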

[3] = molecular target: T3, Human adrenergic α1B receptor (Homo sapiens, UniProt P35368); assay: Radioligand binding, adrenergic α1B (Protocol Group B); settings: Protocol Group B; for Percentage inhibition of ligand binding, Adrenergic α1B (0.1 μM): 0.1 μM compound; for Percentage inhibition of ligand binding, Adrenergic α1B (0.3 μM): 0.3 μM compound
T3 sequence (P35368 1-520): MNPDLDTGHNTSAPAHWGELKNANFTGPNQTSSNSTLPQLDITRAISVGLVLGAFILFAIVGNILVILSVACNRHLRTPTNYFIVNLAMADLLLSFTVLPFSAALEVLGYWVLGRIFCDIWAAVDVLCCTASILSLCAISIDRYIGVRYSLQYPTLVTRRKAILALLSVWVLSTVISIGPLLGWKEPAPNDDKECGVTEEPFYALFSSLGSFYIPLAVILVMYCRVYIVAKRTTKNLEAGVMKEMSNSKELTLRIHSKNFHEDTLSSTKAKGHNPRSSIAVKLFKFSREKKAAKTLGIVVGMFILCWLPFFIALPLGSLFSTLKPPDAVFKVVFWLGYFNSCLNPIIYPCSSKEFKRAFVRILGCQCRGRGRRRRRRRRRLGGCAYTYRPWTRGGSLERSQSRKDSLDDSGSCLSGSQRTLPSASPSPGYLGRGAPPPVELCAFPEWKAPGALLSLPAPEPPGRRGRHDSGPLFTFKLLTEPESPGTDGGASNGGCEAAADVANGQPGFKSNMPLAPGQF
Method in brief: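 Recombinant human α1B membranes incubated with test compound and 0.3 nM [3H]prazosin, 60 min at 25 °C, in 50 mM Tris-HCl pH 7.4, 10 mM MgCl2, 1 mM EDTA; nonspecific binding with 10 μM prazosin. Filter-bound radioactivity counted; values are % inhibition of specific binding or estimated Ki.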

Row | Compound | Percentage inhibition of ligand binding, Adrenergic α2B (10 nM) [1] [%] | Percentage inhibition of ligand binding, Adrenergic α2B (30 nM) [1] [%] | Percentage inhibition of ligand binding, Adrenergic α2B (0.1 μM) [1] [%] | Percentage inhibition of ligand binding, Adrenergic α2A (0.1 μM) [2] [%] | Percentage inhibition of ligand binding, Adrenergic α2A (0.3 μM) [2] [%] | Percentage inhibition of ligand binding, Adrenergic α1B (0.1 μM) [3] [%] | Percentage inhibition of ligand binding, Adrenergic α1B (0.3 μM) [3] [%]
1 | Cc1ccc2c(c1)c1c(n2CC(C)(O)c2ccncc2)CC2CCCN2C1 (single isomer, unassigned) [37c] | 19 | 46 | 73 | −2 | 14 | 15 | 37
2 | Cc1ccc2c(c1)c1c(n2CC(C)(O)c2ccncc2)CC2CCCN2C1 (single isomer, unassigned) [37d] | 15 | 36 | 68 | 4 | 17 | 5 | 14
3 | Cc1ccc2c(c1)c1c(n2CC(C)(O)c2ccc(N(C)C)nc2)CCN(C)C1 (single isomer, unassigned) [39a] | 15 | 38 | 62 | 12 | 26 | 15 | 36
4 | Cc1ccc2c(c1)c1c(n2CC(C)(O)c2ccc(N(C)C)nc2)CCN(C)C1 (single isomer, unassigned) [39b] | 5 | 20 | 32 | 6 | 5 | 10 | 10
5 | Cc1cc(C)c2c(c1)c1c(n2CC(C)(O)c2cccnc2)CCN2CCCC12 (single isomer, unassigned) [44c] | −9 | 0 |  | 1 | 4 | 7 | 4
6 | Cc1cc(C)c2c(c1)c1c(n2CC(C)(O)c2cccnc2)CCN2CCCC12 (single isomer, unassigned) [44d] | −17 | −11 |  | −17 | −16 | −5 | 0
